# According to patent publication EP2926811A1, “ARTEMETHER-CONTAINING PHARMACEUTICAL COMPOSITION, PREPARATION, AND USE THEREOF” (Kunming Pharmaceutical Corp., priority 2012, dated 2014):
# Test system: nude-mouse transplanted tumor of human gastric cancer MKN-45
# Experiment: growth of nude-mouse transplanted tumor of human gastric cancer MKN-45
# Settings: positive control, 10 mg/kg iv, day 19
compound,measurement,value
"O=c1[nH]cc(F)c(=O)[nH]1 [5-Fu, 5-fluorouracil]",RTV,10.60±2.28
same,T/C (%),37.72%
